# Measurements taken from patent publication US12281363B2, “Methods for detecting antiviral-drug resistant virus” (Secretary of State for Health and Social Care, priority 2018, dated 2025).
# pIC50: −log10 of the molar value. Where two headings read alike, the source gives them in different places.
# Test system: HSV-1
# Assay: Plaque reduction assay, HSV-1 clinical isolates on Vero cells
# Format: cell-based
# Settings: Human alphaherpesvirus 1, Vero
# Excerpt: Viral isolates were used to infect a sub-confluent monolayer of Vero cells at a concentration of 75 or 50 plaque forming units (PFU) per well for HSV-1 and HSV-2, respectively. […] CMC medium typically used to create a semisolid interface and prevents indiscrimate viral spreading. Other materials (e.g. agar) may also be used to create this interface.
# Cells were fixed with 10% formalin and stained with crystal violet before enumeration of the plaques (microscopic observation or use of fluorescent antibodies for detection is also suitable). The data obtained from these experiments were then expressed as percent inhibition of viral infectivity relative to the no drug control.
# Definitions of phenotypic drug susceptibility classification as sensitive or resistant were as follows: ACV, <3 μM or >40 μM; PCV, <10 μM or >40 μM; CDV, <24 μM or >30 μM; FOS, <250 μM or >400 μM; and ACV, <6.5 μM or >40 μM; PCV, <38 μM or >40 μM; FOS, <250 μM or >400 μM for HSV-1 and HSV-2, respectively. Any IC50 values falling in between these sensitive and resistant cut-offs were reported as intermediate resistance.
# The phenotype (i.e. reactivity to a drug) of the virus was characterised by the plaque reduction assay as described above.
smiles,measurement,setting,value
"Nc1ccn(C[C@@H](CO)OCP(=O)(O)O)c(=O)n1 [Cidofovir, cidofovir]",pIC50,"72 h, isolate HPG053, HSV-1 pol L802R + A834S (2405T>G, 2500G>T), also TK R176W, read-out: Drug susceptibility (IC50 value)",5.11
same,pIC50,"isolate HPG002, HSV-1 pol E992K (2974G>A), also TK insert (G) nt 430-436, pol A1169T, read-out: Drug susceptibility (IC50 value)",5.22
same,pIC50,"isolate HPG002, HSV-1 pol E992K (2974G>A), also TK insert (G) nt 430-436, pol A1169T, read-out: Drug susceptibility Cidofovir (CDV)",> 4.62
same,pIC50,"isolate HPG003, HSV-1 TK Y172S (515A>C), read-out: Drug susceptibility (IC50 value)",> 5.81
same,pIC50,"isolate HPG003, HSV-1 TK Y172S (515A>C), read-out: Drug susceptibility Cidofovir (CDV)",> 4.62
same,pIC50,"isolate HPG005, HSV-1 TK A37V (110C>T), read-out: Drug susceptibility (IC50 value)",5.66
same,pIC50,"isolate HPG005, HSV-1 TK A37V (110C>T), read-out: Drug susceptibility Cidofovir (CDV)",> 4.62
same,pIC50,"isolate HPG008, HSV-1 TK V204G (611T>G), read-out: Drug susceptibility (IC50 value)",5.45
same,pIC50,"isolate HPG008, HSV-1 TK V204G (611T>G), read-out: Drug susceptibility Cidofovir (CDV)",> 4.62
same,pIC50,"isolate HPG009, HSV-1 pol E992K (2974G>A), also pol A1169T, read-out: Drug susceptibility (IC50 value)",5.03
same,pIC50,"isolate HPG009, HSV-1 pol E992K (2974G>A), also pol A1169T, read-out: Drug susceptibility Cidofovir (CDV)",> 4.62
same,pIC50,"isolate HPG010, HSV-1 TK Q125* (373C>T), read-out: Drug susceptibility (IC50 value)",> 5.81
same,pIC50,"isolate HPG010, HSV-1 TK Q125* (373C>T), read-out: Drug susceptibility Cidofovir (CDV)",> 4.62
same,pIC50,"isolate HPG011, HSV-1 TK Q125* (373C>T), read-out: Drug susceptibility (IC50 value)",> 5.81
same,pIC50,"isolate HPG011, HSV-1 TK Q125* (373C>T), read-out: Drug susceptibility Cidofovir (CDV)",> 4.62
same,pIC50,"isolate HPG013, HSV-1 TK M121I (363G>A), read-out: Drug susceptibility (IC50 value)",5.51
same,pIC50,"isolate HPG013, HSV-1 TK M121I (363G>A), read-out: Drug susceptibility Cidofovir (CDV)",> 4.62
same,pIC50,"isolate HPG013, HSV-1 pol D83A (248A>C), also TK M121I, pol A1169T, read-out: Drug susceptibility (IC50 value)",5.51
same,pIC50,"isolate HPG013, HSV-1 pol D83A (248A>C), also TK M121I, pol A1169T, read-out: Drug susceptibility Cidofovir (CDV)",> 4.62
same,pIC50,"isolate HPG014, HSV-1 pol A1115T (3343G>A), read-out: Drug susceptibility (IC50 value)",4.76
same,pIC50,"isolate HPG014, HSV-1 pol A1115T (3343G>A), read-out: Drug susceptibility Cidofovir (CDV)",> 4.62
same,pIC50,"isolate HPG014, HSV-1 pol R993C (2977C>T), read-out: Drug susceptibility (IC50 value)",4.76
same,pIC50,"isolate HPG014, HSV-1 pol R993C (2977C>T), read-out: Drug susceptibility Cidofovir (CDV)",> 4.62
same,pIC50,"isolate HPG014, HSV-1 pol T54A (160A>G), read-out: Drug susceptibility (IC50 value)",4.76
same,pIC50,"isolate HPG014, HSV-1 pol T54A (160A>G), read-out: Drug susceptibility Cidofovir (CDV)",> 4.62
same,pIC50,"isolate HPG015, HSV-1 pol 966stop or F965_I966insF (2892_2893insT to 2895_2896insT), read-out: Drug susceptibility (IC50 value)",4.35
same,pIC50,"isolate HPG015, HSV-1 pol 966stop or F965_I966insF (2892_2893insT to 2895_2896insT), read-out: Drug susceptibility Cidofovir (CDV)",< 4.52
same,pIC50,"isolate HPG018, HSV-1 TK frameshift (881delC to 885delC), read-out: Drug susceptibility (IC50 value)",5.52
same,pIC50,"isolate HPG018, HSV-1 TK frameshift (881delC to 885delC), read-out: Drug susceptibility Cidofovir (CDV)",> 4.62
same,pIC50,"isolate HPG018, HSV-1 pol P1199T (3595C>A), also TK deletion (C) nt 881-885, pol A1169T, read-out: Drug susceptibility (IC50 value)",5.52
same,pIC50,"isolate HPG018, HSV-1 pol P1199T (3595C>A), also TK deletion (C) nt 881-885, pol A1169T, read-out: Drug susceptibility Cidofovir (CDV)",> 4.62
same,pIC50,"isolate HPG019, HSV-1 pol K750T (2249A>C), also TK deletion (G) nt 430-436, pol A1169T, read-out: Drug susceptibility (IC50 value)",4.69
same,pIC50,"isolate HPG019, HSV-1 pol K750T (2249A>C), also TK deletion (G) nt 430-436, pol A1169T, read-out: Drug susceptibility Cidofovir (CDV)",> 4.62
same,pIC50,"isolate HPG020, HSV-1 pol S911N (2732G>A), also pol A1169T, read-out: Drug susceptibility (IC50 value)",5.36
same,pIC50,"isolate HPG020, HSV-1 pol S911N (2732G>A), also pol A1169T, read-out: Drug susceptibility Cidofovir (CDV)",> 4.62
same,pIC50,"isolate HPG021, HSV-1 pol R681Q (2042G>A), also TK deletion (G) nt 430-436, read-out: Drug susceptibility (IC50 value)",> 5.81
same,pIC50,"isolate HPG021, HSV-1 pol R681Q (2042G>A), also TK deletion (G) nt 430-436, read-out: Drug susceptibility Cidofovir (CDV)",> 4.62
same,pIC50,"isolate HPG021, HSV-1 pol T839A (2515A>G), also TK deletion (G) nt 430-436, read-out: Drug susceptibility (IC50 value)",> 5.81
same,pIC50,"isolate HPG021, HSV-1 pol T839A (2515A>G), also TK deletion (G) nt 430-436, read-out: Drug susceptibility Cidofovir (CDV)",> 4.62
same,pIC50,"isolate HPG025, HSV-1 pol E850Q (2548G>C), also TK R216C, read-out: Drug susceptibility (IC50 value)",> 5.81
same,pIC50,"isolate HPG025, HSV-1 pol E850Q (2548G>C), also TK R216C, read-out: Drug susceptibility Cidofovir (CDV)",> 4.62
same,pIC50,"isolate HPG026, HSV-1 pol E850Q (2548G>C), also TK R216C, pol A1169T, read-out: Drug susceptibility (IC50 value)",> 5.81
same,pIC50,"isolate HPG026, HSV-1 pol E850Q (2548G>C), also TK R216C, pol A1169T, read-out: Drug susceptibility Cidofovir (CDV)",> 4.62
same,pIC50,"isolate HPG027, HSV-1 TK V204G (611T>G), also pol S914L, A1169AT, read-out: Drug susceptibility (IC50 value)",5.41
same,pIC50,"isolate HPG027, HSV-1 TK V204G (611T>G), also pol S914L, A1169AT, read-out: Drug susceptibility Cidofovir (CDV)",> 4.62
same,pIC50,"isolate HPG027, HSV-1 pol S914L (2741C>T), also TK V204G, pol A1169T, read-out: Drug susceptibility (IC50 value)",5.41
same,pIC50,"isolate HPG027, HSV-1 pol S914L (2741C>T), also TK V204G, pol A1169T, read-out: Drug susceptibility Cidofovir (CDV)",> 4.62
same,pIC50,"isolate HPG029, HSV-1 TK Y172S (515A>C), read-out: Drug susceptibility (IC50 value)",5.52
same,pIC50,"isolate HPG029, HSV-1 TK Y172S (515A>C), read-out: Drug susceptibility Cidofovir (CDV)",> 4.62
same,pIC50,"isolate HPG031, HSV-1 pol E1120A (3359A>C), also a TK resistance mutation (footnote e), read-out: Drug susceptibility (IC50 value)",5.32
same,pIC50,"isolate HPG031, HSV-1 pol E1120A (3359A>C), also a TK resistance mutation (footnote e), read-out: Drug susceptibility Cidofovir (CDV)",> 4.62
same,pIC50,"isolate HPG031, HSV-1 pol G139R (415G>C or 415G>A), also a TK resistance mutation (footnote e), read-out: Drug susceptibility (IC50 value)",5.32
same,pIC50,"isolate HPG031, HSV-1 pol G139R (415G>C or 415G>A), also a TK resistance mutation (footnote e), read-out: Drug susceptibility Cidofovir (CDV)",> 4.62
same,pIC50,"isolate HPG032, HSV-1 TK 183* (437_438insA), read-out: Drug susceptibility (IC50 value)",5.44
